Laboratory results as given in paper PMC6205551, “Molecular analysis of the dual targeting of the epidermal growth factor receptor and the O^6-methylguanine-DNA methyltransferase with a double arm hybrid molecule” (Oncotarget, 2018).

Assays:
[1] = target: EGFR (L858R) (Homo sapiens, UniProt P00533, L858R); assay: isolated kinase profiling (Carna), single dose […], ATP at Km; format: biochemical
[2] = target: T1, HER2 (Homo sapiens, UniProt P04626); assay: as above; format: biochemical
T1 construct: gene ERBB2
T1 sequence (P04626 23-1255): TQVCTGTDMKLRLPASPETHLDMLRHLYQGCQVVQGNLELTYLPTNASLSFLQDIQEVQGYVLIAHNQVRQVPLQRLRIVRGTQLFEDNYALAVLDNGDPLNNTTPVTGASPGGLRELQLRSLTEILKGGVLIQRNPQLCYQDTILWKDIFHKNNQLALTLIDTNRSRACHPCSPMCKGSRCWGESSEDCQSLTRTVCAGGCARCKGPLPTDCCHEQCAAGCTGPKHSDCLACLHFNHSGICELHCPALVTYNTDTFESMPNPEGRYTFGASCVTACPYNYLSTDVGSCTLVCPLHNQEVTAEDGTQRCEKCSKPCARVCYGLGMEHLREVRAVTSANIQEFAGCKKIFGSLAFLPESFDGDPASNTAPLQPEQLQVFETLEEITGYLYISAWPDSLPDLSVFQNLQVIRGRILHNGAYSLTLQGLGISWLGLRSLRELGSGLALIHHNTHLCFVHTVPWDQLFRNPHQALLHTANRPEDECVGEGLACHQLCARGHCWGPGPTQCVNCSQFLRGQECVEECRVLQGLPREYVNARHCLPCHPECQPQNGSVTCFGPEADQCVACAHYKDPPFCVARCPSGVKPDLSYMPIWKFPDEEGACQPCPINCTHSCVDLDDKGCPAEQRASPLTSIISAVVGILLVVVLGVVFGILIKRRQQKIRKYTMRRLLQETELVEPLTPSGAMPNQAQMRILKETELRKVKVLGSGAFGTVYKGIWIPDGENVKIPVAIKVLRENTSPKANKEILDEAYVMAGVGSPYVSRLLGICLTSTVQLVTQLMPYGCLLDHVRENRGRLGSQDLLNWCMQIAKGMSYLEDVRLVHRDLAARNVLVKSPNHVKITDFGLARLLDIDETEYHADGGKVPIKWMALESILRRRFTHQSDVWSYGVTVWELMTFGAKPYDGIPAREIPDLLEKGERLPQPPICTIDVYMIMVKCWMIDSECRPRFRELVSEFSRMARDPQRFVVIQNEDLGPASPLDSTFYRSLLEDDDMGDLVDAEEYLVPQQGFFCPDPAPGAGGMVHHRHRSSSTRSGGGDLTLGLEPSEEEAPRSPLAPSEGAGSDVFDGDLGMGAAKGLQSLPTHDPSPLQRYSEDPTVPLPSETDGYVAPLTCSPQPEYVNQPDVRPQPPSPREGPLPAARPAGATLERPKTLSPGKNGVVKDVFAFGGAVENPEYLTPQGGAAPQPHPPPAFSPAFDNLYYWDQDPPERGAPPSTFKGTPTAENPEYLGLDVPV

[3] = target: epidermal growth factor receptor (EGFR) (Homo sapiens, UniProt P00533); assay: in vitro EGFR kinase assay (PGT substrate, […] ATP, ELISA); format: biochemical
[4] = target: T2, HER4 (Homo sapiens, UniProt Q15303); assay: isolated kinase profiling (Carna), single dose […], ATP at Km; format: biochemical
T2 construct: gene ERBB4
T2 sequence (Q15303 26-1308): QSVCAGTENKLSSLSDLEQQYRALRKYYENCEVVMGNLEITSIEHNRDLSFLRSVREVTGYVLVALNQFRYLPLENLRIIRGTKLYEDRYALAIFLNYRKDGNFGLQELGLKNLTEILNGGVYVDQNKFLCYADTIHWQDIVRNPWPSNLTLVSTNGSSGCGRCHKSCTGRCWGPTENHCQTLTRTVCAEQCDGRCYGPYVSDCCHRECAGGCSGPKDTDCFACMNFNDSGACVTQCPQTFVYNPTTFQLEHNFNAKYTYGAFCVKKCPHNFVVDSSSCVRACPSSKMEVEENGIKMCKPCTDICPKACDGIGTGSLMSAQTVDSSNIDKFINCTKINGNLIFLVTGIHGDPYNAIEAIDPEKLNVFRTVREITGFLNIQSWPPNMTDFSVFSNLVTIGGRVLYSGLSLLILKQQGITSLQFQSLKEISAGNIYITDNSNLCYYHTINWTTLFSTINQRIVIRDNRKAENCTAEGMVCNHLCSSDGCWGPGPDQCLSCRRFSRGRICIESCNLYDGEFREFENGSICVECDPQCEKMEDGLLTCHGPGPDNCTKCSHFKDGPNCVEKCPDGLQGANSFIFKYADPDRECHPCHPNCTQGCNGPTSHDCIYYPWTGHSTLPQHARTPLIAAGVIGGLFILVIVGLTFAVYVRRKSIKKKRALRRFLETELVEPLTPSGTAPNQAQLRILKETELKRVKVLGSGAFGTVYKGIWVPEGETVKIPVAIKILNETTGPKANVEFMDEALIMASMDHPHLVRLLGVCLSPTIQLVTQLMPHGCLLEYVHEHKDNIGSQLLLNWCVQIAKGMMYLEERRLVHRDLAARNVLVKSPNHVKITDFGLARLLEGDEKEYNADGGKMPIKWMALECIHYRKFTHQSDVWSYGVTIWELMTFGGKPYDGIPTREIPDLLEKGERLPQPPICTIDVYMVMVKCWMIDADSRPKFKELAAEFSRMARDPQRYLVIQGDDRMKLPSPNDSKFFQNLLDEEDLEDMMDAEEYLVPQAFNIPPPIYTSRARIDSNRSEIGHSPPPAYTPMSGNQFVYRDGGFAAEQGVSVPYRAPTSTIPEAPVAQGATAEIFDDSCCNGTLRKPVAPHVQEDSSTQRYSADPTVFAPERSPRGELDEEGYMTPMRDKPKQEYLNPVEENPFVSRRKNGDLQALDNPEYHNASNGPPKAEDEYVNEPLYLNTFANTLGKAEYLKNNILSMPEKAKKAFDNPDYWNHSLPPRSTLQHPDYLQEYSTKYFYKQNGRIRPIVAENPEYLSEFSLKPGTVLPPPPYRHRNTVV

[5] = target: T3, O^6-methylguanine-DNA methyltransferase (MGMT) (Homo sapiens, UniProt P16455); assay: MALDI-TOF MS of tryptic peptides of isolated MGMT incubated with […] compound (S-benzylation); format: binding
T3 sequence (P16455 1-207): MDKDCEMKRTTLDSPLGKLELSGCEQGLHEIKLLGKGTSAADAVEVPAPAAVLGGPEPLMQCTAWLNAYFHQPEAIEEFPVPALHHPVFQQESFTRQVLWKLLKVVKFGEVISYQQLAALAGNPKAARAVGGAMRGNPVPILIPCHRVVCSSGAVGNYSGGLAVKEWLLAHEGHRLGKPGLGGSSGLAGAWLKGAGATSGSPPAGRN

Row | Structure (SMILES) | isolated kinase profiling (Carna), single dose 500 nM, ATP at Km [1] | isolated kinase profiling (Carna), single dose 500 nM, ATP at Km [2] | IC50 [3] [nM] | isolated kinase profiling (Carna), single dose 500 nM, ATP at Km [4] | MALDI-TOF MS of tryptic peptides of isolated MGMT incubated with 10 μM compound [5]
1 | Nc1nc(OCc2ccccc2)c2ncn(C(=O)N3CCN(CCNc4ccc5ncnc(Nc6cccc(Br)c6)c5c4)CC3)c2n1 [compound 5, (2-amino-6-(benzyloxy)-9H-purin-9-yl)(4-(2-((4-((3-bromophenyl)amino)quinazolin-6-yl)amino)ethyl)piperazin-1-yl)methanone] | MR30, selectively inhibited kinases from the HER family of proteins [e.g. EGFR wild-type, EGFR (L858R) | MR30 selectively inhibited kinases from HER family of proteins, including EGFR, EGFR (L858R, d746-750), HER2 and HER4 | 300 ± 170 | MR30 selectively inhibited kinases from HER family of proteins, including EGFR, EGFR (L858R, d746-750), HER2 and HER4 | like O^6-BG, MR30 is capable of binding to MGMT and alkylate its Cys145
2 | Nc1nc(OCc2ccccc2)c2nc[nH]c2n1 [O^6-BG] |  |  |  |  | when we treated MGMT with MR30 or O^6-BG, we observed a mass shift
